Several values for one entry are separate records, joined by “and”; a condition that tells them apart may be missing. Identical values can stand only once. Like-named read-outs stand apart in the source and are kept apart here.
Experiments:
DNMT3A/3L = target: T1, DNMT3A/3L (Homo sapiens, UniProt Q9Y6K1); experiment: Methyltransferase selectivity assay (filter-based); assay type: biochemical
T1 construct: purchased Structural Genomics Consortium (SGC Toronto) in-house methyltransferase panel
Method: (§1) Selectivity against methyltransferases were determined as described previously. Details of the assays are described in the supplementary methods.
(§2) Methyltransferase selectivity assay1
(§3) The effect of chemical probes and negative controls on the methyltransferase activities of protein, DNA and RNA methyltransferases was tested by radiometric assays using 3H-SAM. […]
Briefly, a 10 µL reaction containing 3H- […]
(§4) The CPM in the absence of compound or enzyme was defined as 100% activity and background (0%), respectively, for each dataset. […]
(§5) For proteins which were tested with nucleosome as substrate such as DOT1L, NSD1, NSD2, NSD3, and ASH1L, or unbiotinylated Poly(2′-deoxyinosinic-2′-deoxycytidylic acid) (Cat# 81349-500UG, Sigma Aldrich) such as DNMT3A/3L, and DNMT3B/3L, a filter-based assay was used. In this assay, a trichloroacetic acid (TCA) protein precipitation protocol was employed. A 10 µL reaction mixture was incubated at 23°C for 1 h, followed by addition of 50 µL of 10% TCA. The mixture was transferred to filter plates (Millipore, Billerica, MA, USA) that were centrifuged at 2000 rpm (Allegra X-15R; Beckman Coulter, Brea, CA, USA) for 2 min. Samples were washed twice with 10% TCA and once with ethanol (180 µL), and centrifuged. After drying, 100 µL MicroScint-O (Perkin Elmer) was added to each well and the plates were centrifuged to remove the liquid. A 70 µL volume of MicroScint-O was added and the CPM was measured with a TopCount plate reader.

NSD2 = target: T2, NSD2 (Homo sapiens, UniProt O96028); experiment: Methyltransferase selectivity assay (filter-based, nucleosome substrate); assay type: biochemical
T2 construct: purchased Structural Genomics Consortium (SGC Toronto) in-house methyltransferase panel
T2 sequence (O96028 1-1365): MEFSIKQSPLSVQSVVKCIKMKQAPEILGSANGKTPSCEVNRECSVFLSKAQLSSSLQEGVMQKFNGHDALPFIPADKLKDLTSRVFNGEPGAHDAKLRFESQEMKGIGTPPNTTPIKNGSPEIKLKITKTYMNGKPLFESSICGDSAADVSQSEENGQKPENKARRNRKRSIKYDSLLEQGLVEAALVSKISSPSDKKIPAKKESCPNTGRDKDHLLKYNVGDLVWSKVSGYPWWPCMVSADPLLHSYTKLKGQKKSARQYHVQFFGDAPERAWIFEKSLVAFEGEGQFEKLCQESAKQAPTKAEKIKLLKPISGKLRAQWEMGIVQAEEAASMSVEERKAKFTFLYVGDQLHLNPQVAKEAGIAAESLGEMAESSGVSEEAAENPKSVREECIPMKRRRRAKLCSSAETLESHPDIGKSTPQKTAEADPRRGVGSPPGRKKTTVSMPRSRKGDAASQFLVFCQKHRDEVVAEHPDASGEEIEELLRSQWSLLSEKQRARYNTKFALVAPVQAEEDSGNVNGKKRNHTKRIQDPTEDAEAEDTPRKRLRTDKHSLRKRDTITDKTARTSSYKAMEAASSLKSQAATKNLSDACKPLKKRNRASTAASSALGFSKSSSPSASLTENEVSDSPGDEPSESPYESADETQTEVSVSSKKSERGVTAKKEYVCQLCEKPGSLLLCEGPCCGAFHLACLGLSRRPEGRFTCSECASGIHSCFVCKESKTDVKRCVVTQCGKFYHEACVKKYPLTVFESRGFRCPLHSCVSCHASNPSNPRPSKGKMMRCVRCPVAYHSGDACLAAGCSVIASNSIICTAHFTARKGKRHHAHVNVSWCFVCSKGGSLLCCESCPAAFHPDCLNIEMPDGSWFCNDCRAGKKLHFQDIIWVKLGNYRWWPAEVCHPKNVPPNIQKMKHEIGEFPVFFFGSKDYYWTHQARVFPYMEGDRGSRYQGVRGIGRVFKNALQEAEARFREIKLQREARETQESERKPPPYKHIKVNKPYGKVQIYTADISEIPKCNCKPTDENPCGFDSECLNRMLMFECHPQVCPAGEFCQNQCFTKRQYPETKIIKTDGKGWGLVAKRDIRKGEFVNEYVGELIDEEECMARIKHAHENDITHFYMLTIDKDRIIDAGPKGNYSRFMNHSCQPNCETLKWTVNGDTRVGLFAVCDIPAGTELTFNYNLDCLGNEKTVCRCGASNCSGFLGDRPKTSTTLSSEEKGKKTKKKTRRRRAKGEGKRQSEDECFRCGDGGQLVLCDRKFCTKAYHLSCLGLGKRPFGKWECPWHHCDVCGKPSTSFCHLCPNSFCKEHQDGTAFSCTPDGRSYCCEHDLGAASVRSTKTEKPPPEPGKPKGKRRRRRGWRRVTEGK
Method: as §1, §2, §3, §4, §5

NSD1 = target: T3, NSD1 (Homo sapiens, UniProt Q96L73); experiment: as above; assay type: biochemical
T3 construct: purchased Structural Genomics Consortium (SGC Toronto) in-house methyltransferase panel
Method: as §1, §2, §3, §4, §5

HEK293T cells = experiment: Cell growth, IncuCyte ZOOM cell number; assay type: cell-based; details: for HEK293T cell growth, toxicity (in words): 24 h of treatment; for HEK293T cytotoxicity (in words): 4 days of treatment; for Cell growth (Cell#): technical replicates
Method: HEK293T or MCF7 cells were seeded on 96-well plates and the following day treated with compounds for indicated time. Cell number was determined with Vybrant® DyeCycle™ Green using IncuCyte™ ZOOM live cell imaging device (Essen Bioscence) and analyzed with IncuCyte™ ZOOM (2015A) software.
(top graphs) and MCF7 cells (bottom graph). Cells were treated with compounds for 2 and 4 days or 5 days in case of MCF7. Cell number was measured using IncuCyte™ ZOOM live cell imaging device. The results are MEAN +/- SEM, n=3 (technical replicates). Source data are provided as a Source Data file.
(1 picture or pasted object on this page, not shown here)

[1] = 10µM compound, Exp1, Exp2, 10 µM
[2] = HEK293, 2 day treatement, 10 µM
[3] = HEK293, 4 day treatement, 0.3 µM
[4] = HEK293, 4 day treatement, 10 µM
[5] = 1µM compound, Exp1, Exp2, read-out: Activity %
[6] = 10µM compound, Exp1, Exp2, read-out: Activity %

T3 sequence (Q96L73 whole entry): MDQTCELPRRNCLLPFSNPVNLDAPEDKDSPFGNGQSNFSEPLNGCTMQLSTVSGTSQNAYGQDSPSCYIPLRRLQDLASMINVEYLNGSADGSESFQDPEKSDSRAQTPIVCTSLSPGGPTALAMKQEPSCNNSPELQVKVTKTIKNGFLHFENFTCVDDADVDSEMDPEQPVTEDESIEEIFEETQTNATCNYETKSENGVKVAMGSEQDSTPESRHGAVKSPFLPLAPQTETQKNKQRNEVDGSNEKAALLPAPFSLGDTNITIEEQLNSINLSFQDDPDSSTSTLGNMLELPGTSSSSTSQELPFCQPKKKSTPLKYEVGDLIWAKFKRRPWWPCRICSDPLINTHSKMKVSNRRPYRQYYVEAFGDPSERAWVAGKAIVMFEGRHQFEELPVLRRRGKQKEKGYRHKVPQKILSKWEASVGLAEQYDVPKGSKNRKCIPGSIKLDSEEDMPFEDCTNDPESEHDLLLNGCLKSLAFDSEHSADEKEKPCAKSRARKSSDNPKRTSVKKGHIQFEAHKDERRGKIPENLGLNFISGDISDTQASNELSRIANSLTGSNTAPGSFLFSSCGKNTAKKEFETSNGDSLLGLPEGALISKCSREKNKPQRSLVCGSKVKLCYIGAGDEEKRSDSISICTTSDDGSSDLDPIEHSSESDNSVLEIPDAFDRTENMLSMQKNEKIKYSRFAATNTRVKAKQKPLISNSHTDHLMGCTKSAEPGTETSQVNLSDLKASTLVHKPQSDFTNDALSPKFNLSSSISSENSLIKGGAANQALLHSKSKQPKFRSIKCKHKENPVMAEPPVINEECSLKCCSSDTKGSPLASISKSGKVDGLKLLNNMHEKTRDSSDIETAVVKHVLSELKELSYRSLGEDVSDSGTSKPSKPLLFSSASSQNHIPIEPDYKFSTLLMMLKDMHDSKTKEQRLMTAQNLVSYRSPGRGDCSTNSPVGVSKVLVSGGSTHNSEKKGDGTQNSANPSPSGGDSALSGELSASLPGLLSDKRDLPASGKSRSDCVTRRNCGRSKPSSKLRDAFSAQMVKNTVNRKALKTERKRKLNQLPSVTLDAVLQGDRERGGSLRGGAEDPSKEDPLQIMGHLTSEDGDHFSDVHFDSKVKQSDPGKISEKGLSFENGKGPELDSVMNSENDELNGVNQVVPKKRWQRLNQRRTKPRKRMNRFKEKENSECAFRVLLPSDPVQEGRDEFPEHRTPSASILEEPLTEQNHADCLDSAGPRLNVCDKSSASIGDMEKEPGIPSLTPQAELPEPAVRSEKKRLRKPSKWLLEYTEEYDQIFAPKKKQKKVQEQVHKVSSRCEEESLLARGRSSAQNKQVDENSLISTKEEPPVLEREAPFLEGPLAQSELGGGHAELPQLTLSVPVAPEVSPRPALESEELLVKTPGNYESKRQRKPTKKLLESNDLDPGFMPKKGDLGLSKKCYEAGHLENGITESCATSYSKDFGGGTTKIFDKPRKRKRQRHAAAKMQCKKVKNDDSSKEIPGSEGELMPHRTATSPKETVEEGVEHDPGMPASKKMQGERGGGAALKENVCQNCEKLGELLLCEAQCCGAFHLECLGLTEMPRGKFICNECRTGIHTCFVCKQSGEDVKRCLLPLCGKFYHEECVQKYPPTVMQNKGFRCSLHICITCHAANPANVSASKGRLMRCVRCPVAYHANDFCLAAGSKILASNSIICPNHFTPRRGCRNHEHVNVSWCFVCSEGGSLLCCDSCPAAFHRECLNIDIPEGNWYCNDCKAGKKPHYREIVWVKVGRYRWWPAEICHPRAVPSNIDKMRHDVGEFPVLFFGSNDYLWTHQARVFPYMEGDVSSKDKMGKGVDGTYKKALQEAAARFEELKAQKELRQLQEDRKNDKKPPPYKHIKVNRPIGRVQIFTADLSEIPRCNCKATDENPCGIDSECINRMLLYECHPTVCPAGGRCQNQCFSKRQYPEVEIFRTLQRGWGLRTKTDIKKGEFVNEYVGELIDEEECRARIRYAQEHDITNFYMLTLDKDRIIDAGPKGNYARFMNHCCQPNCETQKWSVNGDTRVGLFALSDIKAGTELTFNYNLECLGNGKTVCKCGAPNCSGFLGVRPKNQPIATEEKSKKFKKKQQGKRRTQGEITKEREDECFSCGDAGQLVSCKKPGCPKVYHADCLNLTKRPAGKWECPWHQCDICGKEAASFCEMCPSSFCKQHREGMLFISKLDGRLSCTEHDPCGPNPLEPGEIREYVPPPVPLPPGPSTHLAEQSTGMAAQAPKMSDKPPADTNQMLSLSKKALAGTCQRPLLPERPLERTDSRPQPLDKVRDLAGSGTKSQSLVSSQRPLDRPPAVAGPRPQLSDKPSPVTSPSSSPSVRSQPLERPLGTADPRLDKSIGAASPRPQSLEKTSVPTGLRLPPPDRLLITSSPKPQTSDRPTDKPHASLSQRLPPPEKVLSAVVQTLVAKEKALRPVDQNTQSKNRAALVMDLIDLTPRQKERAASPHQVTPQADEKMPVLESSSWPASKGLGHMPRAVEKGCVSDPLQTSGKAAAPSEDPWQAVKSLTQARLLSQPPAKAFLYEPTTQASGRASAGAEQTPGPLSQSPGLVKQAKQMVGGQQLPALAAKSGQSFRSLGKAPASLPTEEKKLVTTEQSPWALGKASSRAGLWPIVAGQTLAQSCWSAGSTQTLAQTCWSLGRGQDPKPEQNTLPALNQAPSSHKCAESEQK
T1 sequence (Q9Y6K1 whole entry, looked up): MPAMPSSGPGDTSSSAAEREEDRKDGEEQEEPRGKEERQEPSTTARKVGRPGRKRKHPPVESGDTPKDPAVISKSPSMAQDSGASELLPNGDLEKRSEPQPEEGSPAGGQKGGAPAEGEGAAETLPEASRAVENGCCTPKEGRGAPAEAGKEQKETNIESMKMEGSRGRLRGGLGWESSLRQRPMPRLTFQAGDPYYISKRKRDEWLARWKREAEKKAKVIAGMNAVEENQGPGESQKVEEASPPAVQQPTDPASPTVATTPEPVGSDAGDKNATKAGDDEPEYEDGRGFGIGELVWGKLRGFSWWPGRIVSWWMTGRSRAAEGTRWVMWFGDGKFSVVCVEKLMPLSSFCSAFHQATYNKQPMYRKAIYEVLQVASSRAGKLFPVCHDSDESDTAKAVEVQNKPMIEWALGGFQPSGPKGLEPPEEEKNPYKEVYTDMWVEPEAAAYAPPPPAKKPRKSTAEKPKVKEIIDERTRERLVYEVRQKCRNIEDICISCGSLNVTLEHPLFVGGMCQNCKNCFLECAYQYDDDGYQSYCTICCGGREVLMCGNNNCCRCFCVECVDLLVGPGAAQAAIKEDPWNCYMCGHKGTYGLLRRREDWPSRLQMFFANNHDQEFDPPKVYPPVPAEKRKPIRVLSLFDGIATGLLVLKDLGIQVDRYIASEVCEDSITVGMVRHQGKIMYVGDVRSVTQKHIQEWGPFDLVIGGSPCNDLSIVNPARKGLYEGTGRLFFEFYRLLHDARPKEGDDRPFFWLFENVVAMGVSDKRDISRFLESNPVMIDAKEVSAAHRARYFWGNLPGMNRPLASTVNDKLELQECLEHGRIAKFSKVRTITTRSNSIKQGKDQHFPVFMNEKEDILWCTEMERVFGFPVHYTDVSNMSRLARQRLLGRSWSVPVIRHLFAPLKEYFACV
T1 sequence (Q9UJW3 whole entry partner): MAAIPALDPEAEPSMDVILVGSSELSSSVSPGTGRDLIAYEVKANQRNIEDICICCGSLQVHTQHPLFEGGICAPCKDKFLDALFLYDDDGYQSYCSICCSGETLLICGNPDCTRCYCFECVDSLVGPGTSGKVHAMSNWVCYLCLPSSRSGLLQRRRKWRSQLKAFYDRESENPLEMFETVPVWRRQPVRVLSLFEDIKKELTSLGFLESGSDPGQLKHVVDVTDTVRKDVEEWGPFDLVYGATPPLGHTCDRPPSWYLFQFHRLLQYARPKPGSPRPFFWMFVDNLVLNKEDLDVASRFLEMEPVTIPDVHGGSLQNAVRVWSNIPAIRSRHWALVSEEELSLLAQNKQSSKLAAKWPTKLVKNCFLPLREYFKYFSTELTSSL

| Compound | Activity % (DNMT3A/3L; 1µM compound, Exp1, Exp2, 1 µM) | Activity % (NSD2; 1µM compound, Exp1, Exp2, 1 µM) | Activity % (NSD2; [1]) | Activity % (NSD1; [1]) | HEK293T cell growth, toxicity (in words) (HEK293T cells; 10 µM) | HEK293T cytotoxicity (in words) (HEK293T cells; 10 µM) | Cell growth (Cell#) (HEK293T cells; HEK293, 2 day treatement, 1 µM) | Cell growth (Cell#) (HEK293T cells; HEK293, 2 day treatement, 3 µM) | Cell growth (Cell#) (HEK293T cells; HEK293, 2 day treatement, 5 µM) | Cell growth (Cell#) (HEK293T cells; [2]) | Cell growth (Cell#) (HEK293T cells; [3]) | Cell growth (Cell#) (HEK293T cells; HEK293, 4 day treatement, 1 µM) | Cell growth (Cell#) (HEK293T cells; HEK293, 4 day treatement, 3 µM) | Cell growth (Cell#) (HEK293T cells; [4]) | further results |
| --- | --- | --- | --- | --- | --- | --- | --- | --- | --- | --- | --- | --- | --- | --- | --- |
| COc1cc(OC)cc(-c2noc(N3CCN(C)C4(CCN(c5ccccc5)CC4)C3)n2)c1 [MRK-740 -NC] | 91% | 100% | 88% | 99% | – | – | – | – | – | – | – | – | – | – | activity at 1 µM (DNMT3A/3L; 1µM compound, Exp1, Exp2): 100%; activity at 10 µM (DNMT3A/3L; 10µM compound, Exp1, Exp2): 96%; Activity % (DNMT3A/3L; [1]): 87%; activity at 1 µM (NSD2; 1µM compound, Exp1, Exp2): 98%; activity at 10 µM (NSD2; 10µM compound, Exp1, Exp2): 98%; activity at 1 µM (NSD1; 1µM compound, Exp1, Exp2): 103%; activity at 10 µM (NSD1; 10µM compound, Exp1, Exp2): 100% |
| COc1cc(OC)cc(-c2noc(N3CCN(C)C4(CCN(c5ccccc5)CC4)C3)n2)c1 [MRK-740-NC] | – | – | – | – | some toxicity | cytotoxicity was observed | 131.284 % control and 117.713 % control and 90.9177 % control | 132.069 % control and 120.302 % control and 91.1588 % control | 115.543 % control and 108.951 % control and 80.3231 % control | 46.5996 % control and 35.6574 % control and 30.4049 % control | 101.286 % control and 102.18 % control and 103.656 % control | 105.145 % control and 104.341 % control and 101.342 % control | 105.432 % control and 102.893 % control and 103.306 % control | 42.1082 % control and 39.7636 % control and 39.5419 % control | – |
| COc1cc(OC)cc(-c2noc(N3CCN(C)C4(CCN(c5ccnc(C)c5)CC4)C3)n2)c1 [MRK-740] | 107% | 97% | 95% | 98% | some toxicity | cytotoxicity was observed | 84.8973 % control and 124.131 % control and 116.53 % control | 73.843 % control and 124.215 % control and 124.008 % control | 68.7811 % control and 110.358 % control and 122.96 % control | 55.0249 % control and 90.6823 % control and 84.1686 % control | 115.326 % control and 111.309 % control and 103.491 % control | 115.93 % control and 116.134 % control and 111.504 % control | 115.346 % control and 109.669 % control and 118.771 % control | 47.3939 % control and 45.1607 % control and 39.6851 % control | activity at 1 µM (DNMT3A/3L; [5]): 108%; activity at 10 µM (DNMT3A/3L; [6]): 100%; activity at 1 µM (NSD2; [5]): 91%; activity at 10 µM (NSD2; [6]): 98%; Activity % (NSD1; 1µM compound, Exp1, Exp2, 1 µM): 97%; activity at 1 µM (NSD1; [5]): 96%; activity at 10 µM (NSD1; [6]): 106% |
